Assay results from ChEMBL document CHEMBL3797108, “Design, synthesis and in vitro biological evaluation of a small cyclic peptide as inhibitor of vascular endothelial growth factor binding to neuropilin-1” (Bioorg Med Chem Lett, 2016).
Active and inactive are the calls of the source. The rule behind the calls is not given here. Positions of bridges follow the written chain, without caps; N, C: chain ends. Residues, ends and D or L forms follow the SMILES beside them.

Columns and labels:
[1] = molecular target: Neuropilin-1 (Rattus norvegicus, UniProt Q9QWJ9); experiment: (§1) Inhibition of (bt)-VEGF165 binding to purified recombinant rat NRP1/Fc chimera measured after overnight incubation by ELISA method
[2] = molecular target: Neuropilin-1 (Rattus norvegicus) (UniProt Q9QWJ9); experiment: Inhibition of (bt)-VEGF165 binding to purified recombinant rat NRP1/Fc chimera at 10 uM measured after overnight incubation by ELISA method
[3] = molecular target: Neuropilin-1 (Rattus norvegicus) (UniProt Q9QWJ9); experiment: Inhibition of (bt)-VEGF165 binding to purified recombinant rat NRP1/Fc chimera at 0.3 uM measured after overnight incubation by ELISA method
[4] = molecular target: Neuropilin-1 (Rattus norvegicus) (UniProt Q9QWJ9); experiment: Inhibition of (bt)-VEGF165 binding to purified recombinant rat NRP1/Fc chimera at 0.1 uM measured after overnight incubation by ELISA method
[5] = molecular target: Neuropilin-1 (Rattus norvegicus) (UniProt Q9QWJ9); experiment: Inhibition of (bt)-VEGF165 binding to purified recombinant rat NRP1/Fc chimera at 0.01 uM measured after overnight incubation by ELISA method
[6] = molecular target: Neuropilin-1 (Rattus norvegicus) (UniProt Q9QWJ9); experiment: Inhibition of (bt)-VEGF165 binding to purified recombinant rat NRP1/Fc chimera at 1 uM measured after overnight incubation by ELISA method
[7] = molecular target: Neuropilin-1 (Rattus norvegicus) (UniProt Q9QWJ9); experiment: Inhibition of (bt)-VEGF165 binding to purified recombinant rat NRP1/Fc chimera at 3 uM measured after overnight incubation by ELISA method
[8] = molecular target: Neuropilin-1 (Rattus norvegicus) (UniProt Q9QWJ9); experiment: as §1
[9] = molecular target: Neuropilin-1 (Rattus norvegicus) (UniProt Q9QWJ9); experiment: Inhibition of (bt)-VEGF165 binding to purified recombinant rat NRP1/Fc chimera at 100 uM measured after overnight incubation by ELISA method
[10] = system: HUVEC; experiment: Toxicity against HUVEC assessed as reduction in cell viability at 200 to 1000 uM incubated for 96 hrs by MTS assay; format: cell-based; conditions: human
[11] = system: MDA-MB-231; experiment: Toxicity against human MDA-MB-231 assessed as reduction in cell viability at 200 to 1000 uM incubated for 24 hrs by MTS assay; format: cell-based; conditions: mda-mb-231, 24 h
[12] = system: MDA-MB-231; experiment: Toxicity against human MDA-MB-231 assessed as reduction in cell viability at 200 to 1000 uM incubated for 96 hrs by MTS assay; format: cell-based; conditions: mda-mb-231, 96 h
[13] = system: HUVEC; experiment: Toxicity against HUVEC assessed as reduction in cell viability at 200 to 1000 uM incubated for 24 hrs by MTS assay; format: cell-based; conditions: human
[14] = molecular target: Neuropilin-1 (Rattus norvegicus) (UniProt Q9QWJ9); experiment: Inhibition of (bt)-VEGF165 binding to purified recombinant rat NRP1/Fc chimera measured after overnight incubation by ELISA method relative to A7R

H-ATWLPPR-OH
IC50 [1]: 5.86 µM
inhibition [2]: 61%
inhibition [3]: 14.6%
inhibition [4]: 2.9%
inhibition [5]: inactive
inhibition [6]: 24.4%
inhibition [7]: 38.1%

N=C(N)NCCC[C@H](NC(=O)[C@@H]1CCC(=O)NCCCC[C@H](N)C(=O)N2CCC[C@H]2C(=O)N1)C(=O)O (H-KPER-OH; lactam 1-3)
inhibition [8]: Dose-dependent effect
IC50 [1]: 0.18 µM
inhibition [9]: 100%
inhibition [2]: 94.7%
inhibition [3]: 61.7%
Activity [10]: Non-toxic
inhibition [4]: 35.5%
inhibition [5]: 3.1%
Activity [11]: Non-toxic
inhibition [6]: 76.5%
Activity [12]: Non-toxic
Activity [13]: Non-toxic
inhibition [7]: 86.7%
Ratio IC50 [14]: < 30
